Assay results taken from patent EP0908457B1, “3-(1,2-benzisothiazol- and isoxazol-5-Y1)-2,4(1H,3H)-pyrimidinedione or thione and 3-(1,2-benzisothiazol- and isoxazol-5-y1)-4(3H)-pyrimidinone or thione herbicidal agents” (BASF AKTIENGESELLSCHAFT, priority 1997, dated 1999).

How the values were obtained:
[1] = test system: Cyperus serotinus, Rottb.; assay: Preemergence weed control under flooded paddy conditions, CYPSE (Flatsedge); format: in vivo; conditions: preemergence, rated three to four weeks after treatment; note: meaning of each grade not given here
[2] = test system: Oryza sativa, (L.) Tebonnet; assay: Rice tolerance to post-transplant applications under flooded paddy conditions (Example 187), ORYSAT (Rice, Tebonnet); conditions: rated three to four weeks after treatment
Sagittaria pygmaea, L. = assay: Preemergence weed control under flooded paddy conditions, SAGPY (Arrowhead (Pygmaea)); format: in vivo; conditions: preemergence, flooded paddy, rated three to four weeks after treatment; note: meaning of each grade not given here
[3] = test system: Echinochloa oryzoides (Ard.) Fritsch.; assay: Preemergence weed control under flooded paddy conditions, ECHORC (Watergrass (Calif.)); format: in vivo; conditions: preemergence, flooded paddy, rated three to four weeks after treatment; note: meaning of each grade not given here
[4] = test system: Monochoria vaginalis, Presl.; assay: Preemergence weed control under flooded paddy conditions, MOOVA (Monochoria); format: in vivo; conditions: preemergence, flooded paddy, rated three to four weeks after treatment; note: meaning of each grade not given here
Cyperus iria = assay: Preemergence weed control under flooded paddy conditions, CYPIR (Rice Flatsedge); format: in vivo; conditions: preemergence, flooded paddy, rated three to four weeks after treatment; note: meaning of each grade not given here

Row | SMILES | herbicidal effect rating, CYPSE ([1]; 0.0313 kg/ha) | herbicidal effect rating, CYPSE ([1]; 0.0625 kg/ha) | herbicidal effect rating, CYPSE ([1]; 0.1250 kg/ha) | herbicidal effect rating, CYPSE ([1]; 0.2500 kg/ha) | herbicidal effect rating, ORYSAT (rice tolerance) ([2]; 0.0313 kg/ha) | herbicidal effect rating, ORYSAT (rice tolerance) ([2]; 0.0625 kg/ha) | herbicidal effect rating, ORYSAT (rice tolerance) ([2]; 0.1250 kg/ha) | herbicidal effect rating, ORYSAT (rice tolerance) ([2]; 0.2500 kg/ha) | herbicidal effect rating, SAGPY (Sagittaria pygmaea, L.; 0.0313 kg/ha) | herbicidal effect rating, SAGPY (Sagittaria pygmaea, L.; 0.0625 kg/ha) | herbicidal effect rating, SAGPY (Sagittaria pygmaea, L.; 0.1250 kg/ha) | herbicidal effect rating, SAGPY (Sagittaria pygmaea, L.; 0.2500 kg/ha) | herbicidal effect rating, ECHORC ([3]; 0.0313 kg/ha) | herbicidal effect rating, ECHORC ([3]; 0.0625 kg/ha) | herbicidal effect rating, ECHORC ([3]; 0.1250 kg/ha) | herbicidal effect rating, ECHORC ([3]; 0.2500 kg/ha) | herbicidal effect rating, MOOVA ([4]; 0.0313 kg/ha) | herbicidal effect rating, MOOVA ([4]; 0.0625 kg/ha) | herbicidal effect rating, MOOVA ([4]; 0.1250 kg/ha) | herbicidal effect rating, MOOVA ([4]; 0.2500 kg/ha) | other results
1 | COC(=O)COc1ccc(C)cc1-c1nsc2ccc(-n3c(=O)cc(C)n(C)c3=O)cc12 [Example 38, Methyl {{2-[5-(3,6-dihydro-3,4-dimethyl-2,6-dioxo-1(2H)-pyrimidinyl)-1,2-benzisothiazol-3-yl]-p-tolyl}oxy}acetate] | 0.0 | 0.0 | 0.0 | 0.0 | 0.0 | 0.0 | 0.0 | 0.0 | 0.0 | 0.0 | 0.0 | 0.0 | 0.0 | 0.0 | 1.0 | 2.0 | 0.0 | 0.0 | 0.0 | 0.0 | herbicidal effect rating, CYPIR (Cyperus iria; 0.0313 kg/ha): 0.0; herbicidal effect rating, CYPIR (Cyperus iria; 0.0625 kg/ha): 0.0; herbicidal effect rating, CYPIR (Cyperus iria; 0.1250 kg/ha): 0.0; herbicidal effect rating, CYPIR (Cyperus iria; 0.2500 kg/ha): 0.0
2 | Cc1ccc(O)c(-c2noc3ccc(-n4c(=O)cc(C(F)(F)F)n(C)c4=O)c(Cl)c23)c1 [Example 41, 3-[4-Chloro-3-(6-hydroxy-m-tolyl)-1,2-benzisoxazol-5-yl]-1-methyl-6-(trifluoromethyl)-2,4(1H,3H)-pyrimidinedione] | 0.0 | 0.0 | 0.0 | 0.0 | 0.0 | 0.0 | 0.0 | 0.0 | 0.0 | 0.0 | 0.0 | 0.0 | 0.0 | 0.0 | 2.0 | 6.0 | 0.0 | 2.0 | 4.0 | 9.0 | herbicidal effect rating, CYPIR (Cyperus iria; 0.0313 kg/ha): 0.0; herbicidal effect rating, CYPIR (Cyperus iria; 0.0625 kg/ha): 0.0; herbicidal effect rating, CYPIR (Cyperus iria; 0.1250 kg/ha): 1.0; herbicidal effect rating, CYPIR (Cyperus iria; 0.2500 kg/ha): 2.0
3 | COc1noc2ccc(-n3c(=O)cc(C(F)(F)F)n(C)c3=O)cc12 [Example 42, 3-(3-Methoxy-1,2-benzisoxazol-5-yl)-1-methyl-6-(trifluoromethyl)-2,4(1H,3H)-pyrimidinedione] | 0.0 | 0.0 | 0.0 | 0.0 | 0.0 | 0.0 | 0.0 | 0.0 | 0.0 | 0.0 | 0.0 | 0.0 | 0.0 | 0.0 | 0.0 | 0.0 | 0.0 | 0.0 | 0.0 | 0.0 | herbicidal effect rating, CYPIR (Cyperus iria; 0.0313 kg/ha): 0.0; herbicidal effect rating, CYPIR (Cyperus iria; 0.0625 kg/ha): 0.0; herbicidal effect rating, CYPIR (Cyperus iria; 0.1250 kg/ha): 0.0; herbicidal effect rating, CYPIR (Cyperus iria; 0.2500 kg/ha): 0.0
